{"source": "patent US20090137652A1", "about": "“METHODS FOR NEUROPROTECTION” (priority 2005, published 2009)", "key": {"[1]": {"tested_on": "rats subjected to li-pilo SE", "test": "Quantification of cell densities 14 days after lithium-pilocarpine SE (Example 2)", "format": "in vivo, rat", "conditions": "14 days after SE", "procedure": "All rats received lithium chloride (3 meq/kg, i.p., Sigma, St Louis, Mo., U.S.A.) and about 20 h later, all animals received also methylscopolamine bromide (1 mg/kg, s.c., Sigma) that was administered to limit the peripheral effects of the convulsant. SE was induced by injecting pilocarpine hydrochloride (25 mg/kg, s.c., Sigma) 30 min after methylscopolamine. The effects of increasing doses of TC (RWJ) were studied in 5 groups of rats. […] The control group received vehicle instead of pilocarpine and TC.\nAt the moment, neuronal counting is still in progress in the second group of animals studied for epileptogenesis and long-term counting and the data concerning that part of the study will not be included in the present report. For neuronal counting, animals were deeply anesthetized with […] pentobarbital (Dolethal®, Vetoquinol, Lure, France). Brains were then removed and frozen. Serial 20 μm slices were cut in a cryostat, air-dried during several days before thionine staining. […] The grid of counting was placed on a well defined area of the cerebral structure of interest and counting was carried out with a microscopic enlargement of 200- or 400-fold defined for each single cerebral structure. Cell counts were performed twice on each side of three adjacent sections for each region by a single observer unaware of the animal's treatment. The number of cells obtained in the 12 counted fields in each cerebral structure was averaged. This procedure was used to minimize the potential errors that could result from double counting leading to overestimation of cell numbers. […] Counts involved only neurons with cell bodies larger than 10 μm. Cells with small cell bodies were considered as glial cells and were not counted.\nFor neuronal damage and epileptogenesis, statistical analysis between groups was performed by means of a one-way analysis of variance followed by a post-hoc Dunnett or Fisher test using the Statistica software."}, "[2]": {"tested_on": "rats subjected to Li-pilo induced SE", "test": "Quantification of cell densities after lithium-pilocarpine SE (Example 1)", "format": "in vivo, rat", "conditions": "pilo-DZP compared to saline-saline rats", "procedure": "The effects of increasing doses of the test compound were studied on 3 groups of rats. The animals of the first group received 10 mg/kg of the test compound, i.p., 1 h after the onset of SE (pilo-TC10) while the animals of groups 2 and 3 received 30 and 60 mg/kg of the test compound (pilo-TC30 and pilo-TC60), respectively.\nAnother group was injected with 2 mg/kg diazepam (DZP, i.m.) at 1 h after the onset of SE. This is a standard treatment to improve animals survival after SE (pilo-DZP). The control group received saline instead of pilocarpine and the test compound (saline-saline). The pilo-test compound rats surviving SE were then injected about 10 h after the first test compound injection with a second i.p. injection of the same dose of the test compound and were maintained under a twice daily treatment with the test compound for 6 additional days. Pilo-DZP received a second injection of 1 mg/kg DZP on the day of SE at about 10 h after the first one. Thereafter, Pilo-DZP and saline-saline rats received twice daily an equivalent volume of saline.\nQuantification of cell densities was performed at […] after SE on 8 pilo-DZP, 8 pilo-TC10, 7 pilo-TC30, 7 pilo-TC60, and 6 saline-saline rats. At 14 days after SE, animals were deeply anesthetized with […] pentobarbital (Dolethal®, Vetoquinol, Lure, France. Brains were then removed and frozen. Serial 20 μm slices were cut in a cryostat, air-dried during several days before thionine staining.\nQuantification of cell densities was performed with a 10×10 boxes 1 cm^2 microscopic grid on coronal sections according to the stereotaxic coordinates of the rat brain atlas (Paxinos and Watson, 1986, The Rat brain in Stereotaxic Coordinates, 2nd ed. Academic Press, San Diego). Cell counts were performed twice in a blind manner and were the average of at least 3 values from 2 adjacent sections in each individual animal. Counts involved only cells larger than 10 μm, smaller ones being considered as glial cells.\nFor the comparison of the characteristics of SE in pilo-saline and pilo-test compound animals, a non-paired Student's t-test was used. The comparison between the number of rats seizing in both groups was performed by means of a Chi square test. For neuronal damage, statistical analysis between groups was performed using ANOVA followed by a Fisher's test for multiple comparisons using the Statview software (Fisher R A, 1946a, Statistical Methods for Research Workers (10th edition) Oliver & Boyd, Edinburgh; Fisher R A, 1946b, The Design of Experiments (4th edition) Oliver & Boyd, Edinburgh)"}, "[3]": {"conditions": "DZP rats compared to control rats"}, "[4]": {"conditions": "DZP rats compared to control saline-treated rats"}, "[5]": {"conditions": "pilo-DZP (2.5 mg/kg i.m.), n = 7"}}, "note": "Where “and” joins values, the source holds several entries; their conditions need not be identical. Equal entries are not always repeated."}
{"smiles": "CN1C(=O)CN=C(c2ccccc2)c2cc(Cl)ccc21", "note": "[DZP, diazepam, reference compound]", "values": [{"measurement": "neurons surviving, all parts of the entorhinal cortex", "setting": "[1]; DZP group", "result": "27-81%"}, {"measurement": "neuronal damage, amygdala central nucleus", "setting": "[1]; [3]", "result": "no neuronal damage"}, {"measurement": "neuronal drop out, CA1 region of the hippocampus (pyramidal cell layer)", "setting": "[1]; [3]", "result": 85, "unit": "%"}, {"measurement": "neuronal drop out, amygdala basolateral nucleus", "setting": "[1]; [3]", "result": 73, "unit": "%"}, {"measurement": "neuronal drop out, amygdala medial dorsal anterior nucleus", "setting": "[1]; [3]", "result": 53, "unit": "%"}, {"measurement": "neuronal drop out, thalamus central medial nucleus", "setting": "[1]; [3]", "result": 34, "unit": "%"}, {"measurement": "neuronal drop out, thalamus dorsolateral medial dorsal nucleus", "setting": "[1]; [3]", "result": 40, "unit": "%"}, {"measurement": "neuronal drop out, thalamus mediodorsal central nucleus", "setting": "[1]; [3]", "result": 18, "unit": "%"}, {"measurement": "neuronal drop out, thalamus mediodorsal lateral nucleus", "setting": "[1]; [3]", "result": 24, "unit": "%"}, {"measurement": "neuronal loss, CA3 region", "setting": "[1]; [3]", "result": 40, "unit": "%"}, {"measurement": "neuronal loss, amygdala medial ventral posterior nucleus", "setting": "[1]; [3]", "result": 38, "unit": "%"}, {"measurement": "neuronal loss, hilus of the dentate gyrus", "setting": "[1]; [3]", "result": "65% and 66%"}, {"measurement": "neuronal loss, thalamus mediodorsal nucleus", "setting": "[1]; [3]", "result": 49, "unit": "%"}, {"measurement": "neuronal loss, ventral lateral division of the dorsolateral thalamic nucleus", "setting": "[1]; [3]", "result": 90, "unit": "%"}, {"measurement": "damage, dorsal entorhinal cortex layer II", "setting": "[1]; [4]", "result": 18, "unit": "%"}, {"measurement": "damage, dorsal entorhinal cortex layers III-IV", "setting": "[1]; [4]", "result": 24, "unit": "%"}, {"measurement": "damage, ventral entorhinal cortex layer II", "setting": "[1]; [4]", "result": "22% and 19%"}, {"measurement": "damage, ventral entorhinal cortex layers III/IV", "setting": "[1]; [4]", "result": "74% and 73%"}, {"measurement": "neuronal loss, piriform cortex dorsal layer II", "setting": "[1]; [4]", "result": 66, "unit": "%"}, {"measurement": "neuronal loss, piriform cortex layer III", "setting": "[1]; [4]", "result": 94, "unit": "%"}, {"measurement": "neuronal loss, piriform cortex ventral layer II", "setting": "[1]; [4]", "result": 89, "unit": "%"}, {"measurement": "number of neuronal cell bodies, Amygdala, Basolateral", "setting": "[1]; [5]", "result": "12.8 ± 5.3"}, {"measurement": "number of neuronal cell bodies, Amygdala, Medial, dorsal anterior", "setting": "[1]; [5]", "result": "40.0 ± 2.5"}, {"measurement": "number of neuronal cell bodies, Amygdala, Medial, ventral posterior", "setting": "[1]; [5]", "result": "21.8 ± 2.4"}, {"measurement": "number of neuronal cell bodies, Cerebral cortex, Entorhinal, layer II, dorsal", "setting": "[1]; [5]", "result": "23.5 ± 0.7"}, {"measurement": "number of neuronal cell bodies, Cerebral cortex, Entorhinal, layer II, ventral", "setting": "[1]; [5]", "result": "21.7 ± 1.3"}, {"measurement": "number of neuronal cell bodies, Cerebral cortex, Entorhinal, layer III/IV, dorsal", "setting": "[1]; [5]", "result": "22.3 ± 0.5"}, {"measurement": "number of neuronal cell bodies, Cerebral cortex, Entorhinal, layer III/IV, ventral", "setting": "[1]; [5]", "result": "7.7 ± 2.3"}, {"measurement": "number of neuronal cell bodies, Cerebral cortex, Piriform, layer II, dorsal", "setting": "[1]; [5]", "result": "12.6 ± 4.2"}, {"measurement": "number of neuronal cell bodies, Cerebral cortex, Piriform, layer II, ventral", "setting": "[1]; [5]", "result": "3.6 ± 0.7"}, {"measurement": "number of neuronal cell bodies, Cerebral cortex, Piriform, layer III", "setting": "[1]; [5]", "result": "1.2 ± 1.2"}, {"measurement": "number of neuronal cell bodies, Hippocampus, CA1 area", "setting": "[1]; [5]", "result": "10.9 ± 1.9"}, {"measurement": "number of neuronal cell bodies, Hippocampus, CA3 area", "setting": "[1]; [5]", "result": "31.3 ± 2.9"}, {"measurement": "number of neuronal cell bodies, Hippocampus, Hilus", "setting": "[1]; [5]", "result": "33.5 ± 3.0"}, {"measurement": "number of neuronal cell bodies, Thalamus, Central medial", "setting": "[1]; [5]", "result": "74.2 ± 7.4"}, {"measurement": "number of neuronal cell bodies, Thalamus, Dorsolateral, medial, dorsal", "setting": "[1]; [5]", "result": "61 ± 6.3"}, {"measurement": "number of neuronal cell bodies, Thalamus, Dorsolateral, ventral lateral", "setting": "[1]; [5]", "result": "9.7 ± 2.5"}, {"measurement": "number of neuronal cell bodies, Thalamus, Mediodorsal central", "setting": "[1]; [5]", "result": "26.3 ± 1.8"}, {"measurement": "number of neuronal cell bodies, Thalamus, Mediodorsal lateral", "setting": "[1]; [5]", "result": "19.6 ± 0.8"}, {"measurement": "number of neuronal cell bodies, Thalamus, Mediodorsal medial", "setting": "[1]; [5]", "result": "16.4 ± 1.9"}, {"measurement": "cell loss, CA1 region of the hippocampus (pyramidal cell layer)", "setting": "[2]", "result": "70% and 75%"}, {"measurement": "cell loss, CA3a", "setting": "[2]", "result": 54, "unit": "%"}, {"measurement": "cell loss, CA3b", "setting": "[2]", "result": 31, "unit": "%"}, {"measurement": "cell loss, dorsal entorhinal cortex layer II", "setting": "[2]", "result": 9, "unit": "%"}, {"measurement": "cell loss, dorsal entorhinal cortex layers III-IV", "setting": "[2]", "result": 15, "unit": "%"}, {"measurement": "cell loss, hilus of the dentate gyrus", "setting": "[2]", "result": 73, "unit": "%"}, {"measurement": "cell loss, lateral thalamic nucleus", "setting": "[2]", "result": 91, "unit": "%"}, {"measurement": "cell loss, mediodorsal thalamic nucleus", "setting": "[2]", "result": 56, "unit": "%"}, {"measurement": "cell loss, piriform cortex layer II", "setting": "[2]", "result": 53, "unit": "%"}, {"measurement": "cell loss, piriform cortex layers III-IV", "setting": "[2]", "result": "total"}, {"measurement": "cell loss, ventral entorhinal cortex layer II", "setting": "[2]", "result": "totally preserved"}, {"measurement": "cell loss, ventral entorhinal cortex layers III-IV", "setting": "[2]", "result": 44, "unit": "%"}]}
